{
  "source": "paper PMC6538953",
  "about": "“Metal Ions Activate the Human Taste Receptor TAS2R7” (Chemical Senses, 2019)",
  "key": {"[1]": {"biological_target": "T1, human TAS2R7 E264^7.32L mutant (Homo sapiens, UniProt Q9NYW3, E264L)", "T1 construct": "signal peptide: first 45 amino acid residues of rat somatostatin receptor 3 (N); expressed in transfected cells; host or cells: HEK293 PEAKrapid (ATCC CRL-2828), transient, co-transfected with Gα16-gust44", "T1 sequence (Q9NYW3 1-318 E264L)": "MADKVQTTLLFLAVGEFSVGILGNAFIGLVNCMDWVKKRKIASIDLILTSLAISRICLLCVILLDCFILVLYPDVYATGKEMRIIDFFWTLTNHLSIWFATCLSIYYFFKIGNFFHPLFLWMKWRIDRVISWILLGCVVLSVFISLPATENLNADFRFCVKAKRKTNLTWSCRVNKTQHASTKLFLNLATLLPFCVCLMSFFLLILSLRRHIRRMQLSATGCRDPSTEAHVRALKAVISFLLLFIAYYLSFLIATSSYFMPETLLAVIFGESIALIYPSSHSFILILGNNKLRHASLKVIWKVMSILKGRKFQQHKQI", "experiment": "Calcium mobilization assay, TAS2R7 mutant E264L", "assay_type": "cell-based", "settings": "20 mM metal ions except 0.16 mM Al2(SO4)3; cromolyn 10 mM; Figure 6B", "source_text": "(§1) The coding sequences of human TAS2Rs were amplified from human genomic DNA, then subcloned into pcDNA3.1(+) vector, with the herpes simplex virus glycoprotein D epitope (HSV) at the C-terminal and a signal peptide consisting of the first 45 amino acid residues of the rat somatostatin receptor 3 at the N-terminal, essentially as described previously ([Bufe et al. 2002]). Point mutations in human TAS2R7 (NCBI Reference Sequence: NP_076408.1) were constructed by site-directed mutagenesis. All the constructs were confirmed by Sanger sequencing.\n(§2) Human embryonic kidney 293 (PEAKrapid, ATCC # CRL-2828) cells were cultured in Opti-MEM medium with 4% fetal bovine serum. One day before transfection, cells were seeded on a 96-well plate at a density of 25 000 per well. Cells were then transiently transfected with a TAS2R construct (0.1 µg/well) along with a G protein Gα16-gust44 (0.1 µg/well) construct by Lipofectamine 2000 (0.5 µl/well). For controls, only Gα16-gust44 was used (mock transfection). Twenty-four hours after transfection, cells were washed with HBSS including 10 mM HEPES and loaded with Fluo-4 in the dark for 1 h. After incubation, cells were washed 2 times with HBSS (including 10 mM HEPES), incubated in the dark for another 30 min, and then washed with assay solution once more before running the assay using a FlexStation III reader. Relative fluorescence units (excitation at 494 nm, emission at 516 nm, and auto cutoff at 515 nm) were read every 2 s for 2 min. Calcium mobilization traces were recorded.\n(§3) Calcium mobilization traces were raw data obtained from single wells. Changes in fluorescence (ΔF) were calculated as the peak fluorescence minus baseline fluorescence ([Lei et al. 2015]). The calcium mobilization was quantified as the percentage of change (ΔF) relative to baseline (F). […] Calcium mobilization traces and bar graphs along with dose-dependent plots were all generated by GraphPad Prism 7. Analysis of variance with Dunnett’s multiple comparisons test was used for statistical analysis. *P < 0.05. […]"}, "[2]": {"tested_on": "mock-transfected HEK293 cells (Gα16-gust44 only)", "experiment": "Calcium mobilization assay, mock-transfected cells (Gα16-gust44 only)", "assay_type": "cell-based, human", "settings": "any concentration tested (cromolyn 10 mM)", "experimental": "as §2\nas §3, with “7.” for “7. Analysis of variance with Dunnett’s multiple comparisons test was used for statistical analysis. *P < 0.05.”"}, "human TAS2R7": {"biological_target": "T2, human TAS2R7 (Homo sapiens, UniProt Q9NYW3)", "T2 construct": "first 45 residues of rat somatostatin receptor 3 (signal peptide) (N); expressed in transfected cells; host or cells: HEK293 (PEAKrapid, ATCC CRL-2828)", "T2 sequence (Q9NYW3 1-318)": "T1 sequence (Q9NYW3 1-318 E264L) with L264E", "set-up": "method as in Meyerhof et al. 2010", "settings": "ref Meyerhof et al. 2010; cited from earlier work"}, "[3]": {"biological_target": "T3, human TAS2R7 E264^7.32Q mutant (Homo sapiens, UniProt Q9NYW3, E264Q)", "T3 construct": "signal peptide: first 45 amino acid residues of rat somatostatin receptor 3 (N); expressed in transfected cells; host or cells: HEK293 PEAKrapid (ATCC CRL-2828), transient, co-transfected with Gα16-gust44", "T3 sequence (Q9NYW3 1-318 E264Q)": "T1 sequence (Q9NYW3 1-318 E264L) with L264Q", "experiment": "Calcium mobilization assay, TAS2R7 mutant E264Q", "assay_type": "cell-based", "settings": "20 mM metal ions except 0.16 mM Al2(SO4)3; cromolyn 10 mM; Figure 6C", "source_text": "as §1\nHuman embryonic kidney 293 (PEAKrapid, ATCC # CRL-2828) cells were cultured in Opti-MEM medium with 4% fetal bovine serum. […] After incubation, cells were washed 2 times with HBSS (including 10 mM HEPES), incubated in the dark for another 30 min, and then washed with assay solution once more before running the assay using a FlexStation III reader. Relative fluorescence units (excitation at 494 nm, emission at 516 nm, and auto cutoff at 515 nm) were read every 2 s for 2 min. Calcium mobilization traces were recorded.\nCalcium mobilization traces were raw data obtained from single wells. Changes in fluorescence (ΔF) were calculated as the peak fluorescence minus baseline fluorescence ([Lei et al. 2015]). The calcium mobilization was quantified as the percentage of change (ΔF) relative to baseline (F). […]"}, "[4]": {"biological_target": "T4, human TAS2R7 E264^7.32K mutant (Homo sapiens, UniProt Q9NYW3, E264K)", "T4 construct": "signal peptide: first 45 amino acid residues of rat somatostatin receptor 3 (N); expressed in transfected cells; host or cells: HEK293 PEAKrapid (ATCC CRL-2828), transient, co-transfected with Gα16-gust44", "T4 sequence (Q9NYW3 1-318 E264K)": "T1 sequence (Q9NYW3 1-318 E264L) with L264K", "experiment": "Calcium mobilization assay, TAS2R7 mutant E264K", "assay_type": "cell-based", "settings": "20 mM metal ions except 0.16 mM Al2(SO4)3; cromolyn 10 mM; Figure 6B", "source_text": "as §1, §2\nCalcium mobilization traces were raw data obtained from single wells. Changes in fluorescence (ΔF) were calculated as the peak fluorescence minus baseline fluorescence ([Lei et al. 2015]). The calcium mobilization was quantified as the percentage of change (ΔF) relative to baseline (F). […] Calcium mobilization traces and bar graphs along with dose-dependent plots were all generated by GraphPad Prism 7. Analysis of variance with Dunnett’s multiple comparisons test was used for statistical analysis. *P < 0.05.\nTo assess the importance of these residues, we performed site-directed mutagenesis. We mutated the negatively charged residues E16^1.42, E264^7.32, and E271^7.39 to Q (glutamine), K (lysine), or L (leucine). The facing H94^3.37 was mutated to F (phenylalanine). HEK293 cells that expressed mutant receptors along with Gα16-gust44 were examined for their responses to metal ions (20 mM for all except 0.16 mM Al2(SO4)3) and cromolyn (10 mM, as a positive control) to assess receptor’s function. To determine the expression level of each receptor, we stained the wild-type or mutant receptor-transfected cells using an anti-HSV antibody since all the receptors are tagged with HSV at c-terminal. […]"}},
  "note": "Positions count from the first letter of the chain named.",
  "data": [
    {"smiles": "O=C(O)c1cc(=O)c2c(OCC(O)COc3cccc4oc(C(=O)O)cc(=O)c34)cccc2o1", "note": "[cromolyn, reference compound]", "values": [
      {"measurement": "Response of E264L mutant receptor", "setting": "[1]", "value": "reduced"},
      {"measurement": "Response of mock-transfected cells", "setting": "[2]", "value": "not"},
      {"measurement": "TAS2R7 reported to respond to bitter compounds", "setting": "human TAS2R7", "value": "respond"},
      {"measurement": "Response of E264Q mutant receptor", "setting": "[3]", "value": "reduced responses"},
      {"measurement": "Response of E264K mutant receptor", "setting": "[4]", "value": "reduced"}
    ]}
  ]
}
